Measured values reported in the NIST ThermoML archive (doi:10.1016/j.fluid.2004.10.022).

Columns and labels:
[1] = refractive index (Na D-line) (dimensionless); conditions: 298.15 K; 101.33 kPa; Liquid; Standard Abbe refractometry
[2] = Liquid; for mass density: 101.33 kPa

CC(=O)OC(C)(C)C [1,1-dimethylethyl ethanoate]
Conditions	refractive index
[1]	1.384

[2]
Conditions	mass density [kg/m3]	vapor or sublimation pressure [kPa]
298.15 K	860.53	–
307.53 K	–	8.99
311.79 K	–	10.99
315.64 K	–	13.09
319.82 K	–	15.73
324.28 K	–	19.04
325.46 K	–	20
328.94 K	–	23.09
332.36 K	–	26.48
336.12 K	–	30.67
339.58 K	–	35.02
342.46 K	–	39.04
345.75 K	–	43.98
348.84 K	–	49.09
352.07 K	–	54.94
354.95 K	–	60.02
357.17 K	–	65.33
359.63 K	–	70.88
361.83 K	–	76.15
363.85 K	–	81.26
366 K	–	87.01
367.99 K	–	92.58
369.46 K	–	96.91
370.68 K	–	100.64
370.86 K	–	100
372.26 K	–	105.59

CC(C)(C)O [2-methylpropan-2-ol]
Conditions	refractive index
[1]	1.3851

[2]
Conditions	mass density [kg/m3]	vapor or sublimation pressure [kPa]
300.93 K	–	6.93
303.15 K	775.4	–
304.86 K	–	8.76
309.12 K	–	11.16
313.25 K	–	14.03
315.48 K	–	15.81
320.17 K	–	20
320.75 K	–	20.63
325.05 K	–	25.76
328.35 K	–	30.37
331.45 K	–	35.33
334.15 K	–	40.21
336.65 K	–	45.17
338.85 K	–	49.98
341.05 K	–	55.12
342.95 K	–	59.92
344.85 K	–	65.12
346.45 K	–	69.66
348.15 K	–	74.84
349.75 K	–	79.98
351.25 K	–	85.09
352.65 K	–	90.08
353.95 K	–	94.97
355.15 K	–	99.63
355.59 K	–	100
355.65 K	–	101.33
356.55 K	–	105.13
357.65 K	–	109.82
358.85 K	–	115.07
359.83 K	–	119.91

CC(C)CO [2-methyl-1-propanol]
Conditions	refractive index
[1]	1.3937

[2]
Conditions	mass density [kg/m3]	vapor or sublimation pressure [kPa]
298.15 K	797.83	–
342.52 K	–	20
381.09 K	–	100

CC(=O)OCC(C)C [2-methylpropyl ethanoate]
Conditions	refractive index
[1]	1.3876

[2]
Conditions	mass density [kg/m3]	vapor or sublimation pressure [kPa]
293.15 K	866.12	–
307.43 K	–	3.99
315.56 K	–	5.99
322.93 K	–	8.48
328.64 K	–	10.98
335.75 K	–	14.98
341.55 K	–	18.96
342.95 K	–	20
346.88 K	–	23.44
351.45 K	–	27.95
355.75 K	–	32.86
359.66 K	–	37.89
363.22 K	–	42.93
366.39 K	–	47.84
368.76 K	–	51.85
371.61 K	–	57.06
374.55 K	–	62.82
376.93 K	–	67.79
379.15 K	–	72.78
381.03 K	–	77.2
383.63 K	–	83.72
385.84 K	–	89.68
387.69 K	–	94.78
389.16 K	–	98.95
389.9 K	–	100
391.39 K	–	105.57
